Assay: mn = molality of the nth substance listed, in mol/kg
Conditions: 101 kPa, Liquid; for mass density: Vibrating tube method; for speed of sound: Pulse-echo method

C[S+](C)[O-] [dimethyl sulfoxide] + [O-][Cl+3]([O-])([O-])[O-].[O-][Cl+3]([O-])([O-])[O-].[Sr+2]
m2 = 0
Conditions | mass density [kg/m3]
293.15 K | 1100.22
298.15 K | 1095.18
303.15 K | 1090.17
313.15 K | 1080.12
323.15 K | 1070.08
333.15 K | 1060.03

CO [methanol] + [O-][Cl+3]([O-])([O-])[O-].[O-][Cl+3]([O-])([O-])[O-].[Sr+2]
m2 = 0
Conditions | mass density [kg/m3]
283.15 K | 800.547
288.15 K | 795.856
293.15 K | 791.16
298.15 K | 786.447
303.15 K | 781.721
308.15 K | 776.973
313.15 K | 772.194

C[S+](C)[O-] [dimethyl sulfoxide] + [Ca+2].[O-][Cl+3]([O-])([O-])[O-].[O-][Cl+3]([O-])([O-])[O-]
m2 = 0
Conditions | mass density [kg/m3]
293.15 K | 1100.21
298.15 K | 1095.18
303.15 K | 1090.16
313.15 K | 1080.12
323.15 K | 1070.08
333.15 K | 1060.02

C[S+](C)[O-] [dimethyl sulfoxide] + [Ba+2].[O-][Cl+3]([O-])([O-])[O-].[O-][Cl+3]([O-])([O-])[O-]
m2 = 0
Conditions | mass density [kg/m3]
293.15 K | 1100.21
298.15 K | 1095.18
303.15 K | 1090.16
313.15 K | 1080.12
323.15 K | 1070.08
333.15 K | 1060.02

[O-][Cl+3]([O-])([O-])[O-].[O-][Cl+3]([O-])([O-])[O-].[Sr+2] [strontium perchlorate] + C[S+](C)[O-]
Conditions | mass density, 293.15 K [kg/m3] | mass density, 298.15 K [kg/m3] | mass density, 303.15 K [kg/m3] | mass density, 313.15 K [kg/m3] | mass density, 323.15 K [kg/m3] | mass density, 333.15 K [kg/m3] | speed of sound, 298.15 K [m/s]
m1 = 0.02541 | 1105.84 | 1100.82 | 1095.81 | 1085.8 | 1075.79 | 1065.77 | –
m1 = 0.03174 | 1107.23 | 1102.22 | 1097.22 | 1087.21 | 1077.21 | 1067.2 | 1485.7
m1 = 0.04183 | 1109.48 | 1104.48 | 1099.47 | 1089.48 | 1079.49 | 1069.48 | 1486.1
m1 = 0.05362 | 1112.12 | 1107.12 | 1102.12 | 1092.14 | 1082.16 | 1072.17 | 1486.7
m1 = 0.06535 | 1114.75 | 1109.75 | 1104.76 | 1094.79 | 1084.82 | 1074.85 | 1487.3
m1 = 0.08369 | 1118.88 | 1113.89 | 1108.92 | 1098.96 | 1089.01 | 1079.07 | 1488.2
m1 = 0.1061 | 1123.96 | 1118.98 | 1114.01 | 1104.08 | 1094.14 | 1084.22 | 1489.3
m1 = 0.1303 | 1129.53 | 1124.56 | 1119.6 | 1109.69 | 1099.79 | 1089.89 | 1490.4
m1 = 0.1512 | 1134.32 | 1129.36 | 1124.42 | 1114.52 | 1104.65 | 1094.78 | 1491.5
m1 = 0.1771 | 1140.37 | 1135.43 | 1130.49 | 1120.62 | 1110.77 | 1100.92 | 1492.6
m1 = 0.1981 | 1145.33 | 1140.39 | 1135.46 | 1125.62 | 1115.78 | 1105.96 | 1493.7

Source: the NIST ThermoML archive (doi:10.1016/j.jct.2010.04.013)
